The nature of assay [1]: Antiproliferative activity against human SKHep cells incubated for 72 hrs by MTT assay. The format is functional, cell-based. Background: Formazan colour is commonly taken as a measure of viable cells.
For another assay, the system named is HeLa. Put plainly: Antiproliferative activity against human HeLa cells incubated for 72 hrs by MTT assay. It is filed as functional, cell-based.
The subject of the next assay is NCI-H1299. Put plainly: Antiproliferative activity against human H1299 cells incubated for 72 hrs by MTT assay. The format is functional, cell-based. Particulars: NCI-H1299, 72 h.
The next assay concerns SAS. Put plainly: Antiproliferative activity against human SAS cells incubated for 72 hrs by MTT assay. The format is functional, cell-based.
The nature of assay [2]: Antiproliferative activity against human 786-O cells incubated for 72 hrs by MTT assay. The format is functional, cell-based. Particulars: 786-0, 72 h.
The test system of the next assay is Detroit 551. Nature of the assay: Antiproliferative activity against human Detroit 551 cells incubated for 72 hrs by MTT assay. It is filed as functional, cell-based. Particulars: Detroit 551, 72 h.
Another assay relates to AGS. Put plainly: Antiproliferative activity against human AGS cells incubated for 72 hrs by MTT assay. The format is functional, cell-based.
For another assay, the system named is MDA-MB-231. Put plainly: Antiproliferative activity against human MDA-MB-231 cells incubated for 72 hrs by MTT assay. It is filed as functional, cell-based. Particulars: MDA-MB-231, 72 h.
A further assay concerns Nucleic Acid. Put plainly: Induction of DNA intercalation of negative supercoiled Escherichia coli pBR322 DNA at 10 uM incubated for 12 hrs by ethidium bromide staining based DNA mobility assay. It is filed as nucleic-acid assay.

The source made the active and inactive calls. No cut-off for these calls is given here. Some results are limits rather than exact numbers.

Usually IC50 stands for the concentration that inhibits the measured activity by half. Read a high IC50 as lower potency. Turning to `CNCCC(=O)N1CCN(c2nc3ccccc3c3c2-c2ccc(OC)cc2C3=O)CC1`, the IC50 in [1] was determined as 9.1 µM; with HeLa, 1.9 µM; in the assay with NCI-H1299, 5.46 µM; with SAS it was 6.9 µM; in [2] it was 6 µM; in the assay with Detroit 551 it was 2.92 µM. Besides, the IC50 was found to be 8.11 µM with AGS and 5.89 µM in the assay on MDA-MB-231.

Consider `COc1ccc2c(c1)C(=O)c1c-2c(N2CCN(C(=O)CCN(C)C)CC2)nc2ccccc12`, for which the IC50 in assay [1] came out at 16.6 µM; in the assay with HeLa it was 11.7 µM; in the assay on NCI-H1299, 5.79 µM; in the assay on SAS, 17 µM; in [2], 11.5 µM; with Detroit 551, 2.84 µM. The IC50 with AGS came out at 8.11 µM; in the assay on MDA-MB-231, 6.61 µM.

With `COc1ccc2c(c1)C(=O)c1c-2c(N2CCN(C(=O)CCN3CCOCC3)CC2)nc2ccccc12`, the IC50 in assay [1] was 15.1 µM; in the assay on HeLa, 14.3 µM; with NCI-H1299 it was 18.7 µM; in the assay with SAS, more than 30 µM; in assay [2], more than 30 µM; with AGS it was 12 µM. This compound also registered an IC50 with MDA-MB-231 of 21.9 µM.

Regarding `COc1ccc2c(c1)C(=O)c1c-2c(N2CCN(C(=O)CCNCCCN(C)C)CC2)nc2ccccc12`, the IC50 in assay [1] is 8.6 µM; with HeLa, 5.43 µM; with NCI-H1299, 5.44 µM; in the assay with SAS it was 13.5 µM; in assay [2], 5.9 µM; in the assay on Detroit 551, 6.42 µM. Besides, the results for the IC50 in the assay on AGS and with MDA-MB-231 were 2.8 µM and 5.7 µM, respectively.

On to `COc1ccc2c(c1)C(=O)c1c-2c(N2CCN(C(=O)CN3CCNCC3)CC2)nc2ccccc12`, for which the IC50 was 2.22 µM in assay [1]; more than 30 µM in the assay on HeLa; 5.32 µM in the assay with NCI-H1299; 7.4 µM with SAS; 4 µM in [2]; 2.55 µM in the assay on Detroit 551. In addition, the IC50 in the assay with AGS came to 3.37 µM; in the assay on MDA-MB-231 it was 5.45 µM.

With `CNCC(O)CN1CCN(c2nc3ccccc3c3c2-c2ccc(OC)cc2C3=O)CC1` (stereo not drawn), the IC50 in assay [1] came out at 3.44 µM; in the assay on HeLa, 4.64 µM; with NCI-H1299, 6.89 µM; in the assay with SAS, 7.4 µM; in [2] it was 6.4 µM; in the assay with Detroit 551, 9.4 µM. Also, the IC50 in the assay with AGS stood at 9.58 µM; in the assay on MDA-MB-231 it was 6.05 µM.

Take `CNCC(=O)N1CCN(c2nc3ccccc3c3c2-c2ccc(OC)cc2C3=O)CC1`: the IC50 in [1] came to 4.83 µM; with HeLa, 2.04 µM; in the assay on NCI-H1299, 5.14 µM; in the assay on SAS it was 7.4 µM; in assay [2], 6.2 µM; in the assay with Detroit 551, 4.84 µM. The IC50 with AGS is 7.15 µM; with MDA-MB-231 it was 5.92 µM.

As to `COc1ccc2c(c1)C(=O)c1c-2c(N2CCNCC2)nc2ccccc12`, the IC50 in [1] is 25.3 µM; in the assay on HeLa, 15.2 µM; with NCI-H1299, 17.1 µM; in the assay with SAS it was more than 30 µM; in assay [2], 12.5 µM; in the assay with Detroit 551, 5.71 µM. In addition, the IC50 in the assay on AGS is 10.1 µM; in the assay on MDA-MB-231, 23.8 µM.

For the compound `COc1ccc2c(c1)C(=O)c1c-2c(N2CCN(C(=O)CCNCCO)CC2)nc2ccccc12`, the IC50 turned out to be 4.51 µM in assay [1]; 3.13 µM in the assay with HeLa; 5.67 µM with NCI-H1299; 9.1 µM in the assay on SAS; 2.03 µM in assay [2]; 8.38 µM in the assay on Detroit 551. The IC50 is 3.67 µM in the assay on AGS and 6.08 µM with MDA-MB-231.

`COc1ccc2c(c1)C(=O)c1c-2c(N2CCN(C(=O)CNCCCN(C)C)CC2)nc2ccccc12`: the IC50 was 13.1 µM in [1]; 10.8 µM in the assay with HeLa; 5.99 µM in the assay with NCI-H1299; more than 30 µM in the assay on SAS; 9.97 µM in assay [2]; 8.89 µM in the assay with Detroit 551. In addition, the figures for the IC50 in the assay on AGS and with MDA-MB-231 were 5.62 µM and 6 µM, respectively.

For `COc1ccc2c(c1)C(=O)c1c-2c(N2CCN(C(=O)CCN3CCNCC3)CC2)nc2ccccc12`, the IC50 amounted to 4.93 µM in [1]; 4.71 µM in the assay on HeLa; 5.87 µM with NCI-H1299; 7.7 µM in the assay on SAS; 1.5 µM in assay [2]; 3.35 µM in the assay with Detroit 551. For the same compound, the IC50 with AGS stood at 5.46 µM; with MDA-MB-231, 6.26 µM.

Turning to `COc1ccc2c(c1)C(=O)c1c-2c(N2CCN(CC(O)CN(C)C)CC2)nc2ccccc12` (stereo not drawn), the IC50 was determined as 2.22 µM in assay [1]; 2.47 µM in the assay with HeLa; 6.84 µM with NCI-H1299; 6.9 µM in the assay on SAS; 6.8 µM in assay [2]; 2.58 µM with Detroit 551. In addition, the figures for the IC50 with AGS and with MDA-MB-231 were 7.86 µM and 6.11 µM, respectively.

Turning to `COc1ccc2c(c1)C(=O)c1c-2c(N2CCN(C(=O)CCNCCN(C)C)CC2)nc2ccccc12`, the IC50 in [1] was determined as 5.08 µM; with HeLa, 4.78 µM; in the assay on NCI-H1299, 5.65 µM; with SAS it was 8.8 µM; in assay [2], 7.03 µM; in the assay with Detroit 551, 2.53 µM. Moreover, the results for the IC50 in the assay with AGS and with MDA-MB-231 were 4.94 µM and 7.44 µM, respectively.

Regarding `COc1ccc2c(c1)/C(=N\OCC(O)CN(C)C)c1c-2c(N2CCN(CC(O)CN(C)C)CC2)nc2ccccc12` (stereo not drawn), the IC50 in [1] stood at 2.46 µM; with HeLa it was 0.98 µM; in the assay with NCI-H1299, 0.68 µM; in the assay on SAS it was 9 µM; in [2], 13.9 µM; in the assay with Detroit 551, 2.05 µM. Besides, the IC50 amounted to 18.6 µM in the assay on AGS and 0.7 µM in the assay on MDA-MB-231.

Take `COc1ccc2c(c1)/C(=N\OCCN1CCCC1)c1c-2c(O)nc2ccccc12`: in the assay with Nucleic Acid, the result was Active.

In the case of `COc1ccc2c(c1)C(=O)c1c-2c(N2CCN(C(=O)CN(C)C)CC2)nc2ccccc12`, the IC50 was 19.2 µM in assay [1]; 11.8 µM in the assay on HeLa; 6.28 µM with NCI-H1299; more than 30 µM with SAS; 14.1 µM in assay [2]; 31.5 µM with Detroit 551. The IC50 in the assay on AGS amounted to 8.7 µM; in the assay with MDA-MB-231, 6.15 µM.

As to `CC[C@@]1(O)C(=O)OCc2c1cc1n(c2=O)Cc2cc3ccccc3nc2-1` [CAMPTOTHECIN], the IC50 in assay [1] was found to be 0.22 µM; in the assay on HeLa it was 0.18 µM; in the assay on NCI-H1299, 3.14 µM; in the assay on SAS, 6 µM; in assay [2], 0.015 µM; with Detroit 551 it was 0.99 µM. In addition, the IC50 worked out at 23.8 µM in the assay with AGS and 2.11 µM in the assay with MDA-MB-231.

Take `COc1ccc2c(c1)/C(=N\O)c1c-2c(N2CCNCC2)nc2ccccc12`: the IC50 in [1] was 3.75 µM; in the assay on HeLa it was 2.35 µM; in the assay with NCI-H1299, 5.72 µM; in the assay with SAS it was 6.1 µM; in assay [2] it was 1.2 µM; with AGS, 1.74 µM. In the assay with MDA-MB-231, this compound yielded an IC50 of 5.87 µM.

Consider `COc1ccc2c(c1)C(=O)c1c-2c(N2CCN(C(=O)CNCCO)CC2)nc2ccccc12`, for which the IC50 in assay [1] was determined as 6.64 µM; with HeLa, 4.74 µM; with NCI-H1299, 5.41 µM; in the assay on SAS, 11.3 µM; in assay [2], 6.7 µM; in the assay with Detroit 551 it was 8.78 µM. Further, the IC50 was found to be 6.55 µM in the assay with AGS and 5.9 µM in the assay on MDA-MB-231.

Regarding `COc1ccc2c(c1)C(=O)c1c-2c(N2CCN(C(=O)CNCCN(C)C)CC2)nc2ccccc12`, the IC50 in assay [1] turned out to be 16 µM; in the assay on HeLa, 8.17 µM; in the assay on NCI-H1299, 6.48 µM; in the assay with SAS, 19.5 µM; in assay [2], 9.37 µM; with Detroit 551, 4.59 µM. For the same compound, the IC50 with AGS came to 14.1 µM; in the assay on MDA-MB-231 it was 6.15 µM.

With `COc1ccc2c(c1)C(=O)c1c-2c(N2CCN(C(=O)CN3CCOCC3)CC2)nc2ccccc12`, the IC50 in [1] is 19.9 µM; in the assay on HeLa it was 18 µM; with NCI-H1299 it was more than 30 µM; in the assay on SAS it was more than 30 µM; in assay [2], more than 30 µM; in the assay with AGS, 21.4 µM. Also, the IC50 in the assay with MDA-MB-231 is more than 30 µM.

Values taken from ChEMBL document CHEMBL3585245, “Synthesis and antiproliferative evaluation of 9-methoxy-6-(piperazin-1-yl)-11H-indeno[1,2-c]quinoline-11-one derivatives. Part 4” (Medchemcomm, 2014).
